# Patent publication US5616606A, “Oligopeptide antiretroviral agents” (priority 1995, dated 1997)
# “And” between values parts separate entries of the source, which are not always exact repeats. Equal entries are not always repeated. “Also recorded” adds a separate entry of the source. Where two headings read alike, the source gives them in different places.
# Columns and labels:
# 2.2.15 cells = experiment: toxicity analysis, neutral red dye uptake in 2.2.15 cells; conditions: triplicate, ± standard deviation
# HBV = experiment: inhibition of HBV DNA replication in 2.2.15 cell cultures; type: cell-based; conditions: for INT[…] DNA MONO.: 24 hours following the 9th day of treatment; for INT[…] DNA MONO. / HBV VIRION DNA DAY 0 / HBV VIRION DNA DAY 6 / HBV VIRION DNA DAY 9: single well; for effect on HBV replication (in words): tested at 50 and 10 μM, compared with 2',3'-ddC
# calf thymus DNA = experiment: ethidium displacement assay, drug-DNA binding constant, calf thymus DNA; conditions: relative to ethidium 10^7 M^-1, average of repeat measurements
# HIV-1 = conditions: for INFECTED RESPONSE % of Control: Table IX; for Anti-HIV-1 Activity (National Cancer Institute Designation): inactive, moderate or active; for EC50: Table XI
# [1] = solubility in DMSO, MeOH, H2O; type: physicochemical
# poly(dA-dT) = experiment: ethidium displacement assay, poly(dA-dT); conditions: relative to ethidium 9.5 × 10^6 M^-1, average of repeat measurements
# [2] = system: T4 lymphocytes (CEM cell line); experiment: NCI anti-HIV screen, toxicity control in uninfected cells; type: cell-based; conditions: Table IX
# [3] = target: Moloney Leukemia Virus reverse transcriptase (Moloney murine leukemia virus, UniProt P03355); experiment: inhibition of MLV associated reverse transcriptase activity; conditions: 50% inhibitory dose after 120 min incubation
# SC-1 cells = experiment: toxicity TD50 reported with the anti-MLV test; conditions: Table IV
# [4] = system: Moloney murine leukemia virus (MLV); experiment: anti-Moloney murine leukemia virus (MLV) plaque test; type: cell-based; conditions: anti-MLV plaque count
# [5] = 50 μM, zero = undetectable, cutoff 0.1 pg/ml, dihydrochloride
# [6] = 10 μM, listed as Compound 14, dihydrochloride
# [7] = 50 μM, listed as Compound 14, dihydrochloride
smiles,measurement,setting,value
"Cl.Cl.Cn1cc(NC(=O)c2cc(NC(=O)CC(=O)Nc3cc(C(=O)Nc4cc(C(=O)NCCC(N)=O)n(C)c4)n(C)c3)cn2C)cc1C(=O)NCCC(N)=O [Compound 4, N,N'-Di(1-methyl-2-[1-methyl-2-carboxamido(3-proprionamide)-4-pyrrole]-4-pyrrolyl)malonamide dihydrochloride]",NEUTRAL RED DYE UPTAKE,2.2.15 cells; 10 μg/ml,99 ± 1 % OF CONTROL
same,NEUTRAL RED DYE UPTAKE,2.2.15 cells; 100 μg/ml,100 ± 1 % OF CONTROL
same,NEUTRAL RED DYE UPTAKE,2.2.15 cells; 300 μg/ml,99 ± 1 % OF CONTROL
same,INT[…] DNA MONO.,"HBV; 10 μM, dihydrochloride",2.3 pg/μg CELL DNA and 2.8 pg/μg CELL DNA and 2.1 pg/μg CELL DNA
same,HBV VIRION DNA DAY 0,"HBV; 10 μM, dihydrochloride",77 pg/ml CULTURE MEDIUM and 61 pg/ml CULTURE MEDIUM and 64 pg/ml CULTURE MEDIUM
same,HBV VIRION DNA DAY 6,"HBV; 10 μM, dihydrochloride",52 pg/ml CULTURE MEDIUM and 55 pg/ml CULTURE MEDIUM and 96 pg/ml CULTURE MEDIUM and 59 pg/ml CULTURE MEDIUM
same,HBV VIRION DNA DAY 9,"HBV; 10 μM, dihydrochloride",73 pg/ml CULTURE MEDIUM and 81 pg/ml CULTURE MEDIUM and 62 pg/ml CULTURE MEDIUM and 50 pg/ml CULTURE MEDIUM
same,INT[…] DNA MONO.,"HBV; 50 μM, dihydrochloride",2.5 pg/μg CELL DNA and 2.8 pg/μg CELL DNA and 2.1 pg/μg CELL DNA and 2.4 pg/μg CELL DNA
same,HBV VIRION DNA DAY 0,"HBV; 50 μM, dihydrochloride",63 pg/ml CULTURE MEDIUM and 66 pg/ml CULTURE MEDIUM and 78 pg/ml CULTURE MEDIUM and 74 pg/ml CULTURE MEDIUM
same,HBV VIRION DNA DAY 6,"HBV; 50 μM, dihydrochloride",86 pg/ml CULTURE MEDIUM and 70 pg/ml CULTURE MEDIUM and 64 pg/ml CULTURE MEDIUM and 88 pg/ml CULTURE MEDIUM
same,HBV VIRION DNA DAY 9,HBV; [5],97 pg/ml CULTURE MEDIUM and 65 pg/ml CULTURE MEDIUM and 61 pg/ml CULTURE MEDIUM and 85 pg/ml CULTURE MEDIUM
same,DNA Binding Constant,calf thymus DNA,3.6e+07 M⁻¹
Cl.Cl.Cn1cc(NC(=O)c2cc(NC(=O)/C=C\C(=O)Nc3cc(C(=O)Nc4cc(C(=O)NCCC(=N)N)n(C)c4)n(C)c3)cn2C)cc1C(=O)NCCC(=N)N [Compound 22b],INFECTED RESPONSE % of Control,HIV-1; dose 3.02 × 10^-4 Molar,-0.29 % of Control
same,INFECTED RESPONSE % of Control,HIV-1; dose 3.03 × 10^-5 Molar,114.32 % of Control
same,INFECTED RESPONSE % of Control,HIV-1; dose 3.03 × 10^-6 Molar,44.03 % of Control
same,INFECTED RESPONSE % of Control,HIV-1; dose 3.04 × 10^-7 Molar,28.75 % of Control
same,INFECTED RESPONSE % of Control,HIV-1; dose 9.54 × 10^-5 Molar,84.02 % of Control
same,INFECTED RESPONSE % of Control,HIV-1; dose 9.57 × 10^-4 Molar,-0.14 % of Control
same,INFECTED RESPONSE % of Control,HIV-1; dose 9.59 × 10^-6 Molar,115.19 % of Control
same,INFECTED RESPONSE % of Control,HIV-1; dose 9.61 × 10^-7 Molar,32.14 % of Control
same,Anti-HIV-1 Activity (National Cancer Institute Designation),HIV-1,Active
same,NEUTRAL RED DYE UPTAKE,2.2.15 cells; 10 μg/ml,99 ± 2 % OF CONTROL
same,NEUTRAL RED DYE UPTAKE,2.2.15 cells; 30 μg/ml,98 ± 1 % OF CONTROL
same,NEUTRAL RED DYE UPTAKE,2.2.15 cells; 100 μg/ml,99 ± 1 % OF CONTROL
same,NEUTRAL RED DYE UPTAKE,2.2.15 cells; 300 μg/ml,85 ± 2 % OF CONTROL
same,Solubility in DMSO,[1],good
same,Solubility in MeOH,[1]; MeOH,good
same,INT[…] DNA MONO.,HBV; [6],2.5 pg/μg CELL DNA and 2.2 pg/μg CELL DNA and 2.3 pg/μg CELL DNA and 2.1 pg/μg CELL DNA
same,HBV VIRION DNA DAY 0,HBV; [6],50 pg/ml CULTURE MEDIUM and 61 pg/ml CULTURE MEDIUM and 55 pg/ml CULTURE MEDIUM and 67 pg/ml CULTURE MEDIUM
same,HBV VIRION DNA DAY 6,HBV; [6],110 pg/ml CULTURE MEDIUM and 120 pg/ml CULTURE MEDIUM and 77 pg/ml CULTURE MEDIUM and 87 pg/ml CULTURE MEDIUM
same,HBV VIRION DNA DAY 9,HBV; [6],21 pg/ml CULTURE MEDIUM and 25 pg/ml CULTURE MEDIUM and 22 pg/ml CULTURE MEDIUM and 20 pg/ml CULTURE MEDIUM
same,INT[…] DNA MONO.,HBV; [7],1.9 pg/μg CELL DNA and 2.0 pg/μg CELL DNA and 2.3 pg/μg CELL DNA
same,HBV VIRION DNA DAY 0,HBV; [7],71 pg/ml CULTURE MEDIUM and 89 pg/ml CULTURE MEDIUM and 51 pg/ml CULTURE MEDIUM and 92 pg/ml CULTURE MEDIUM
same,HBV VIRION DNA DAY 6,HBV; [7],26 pg/ml CULTURE MEDIUM and 27 pg/ml CULTURE MEDIUM and 36 pg/ml CULTURE MEDIUM and 37 pg/ml CULTURE MEDIUM
same,HBV VIRION DNA DAY 9,"HBV; 50 μM, zero = undetectable, cutoff 0.1 pg/ml",1 pg/ml CULTURE MEDIUM
same,effect on HBV replication (in words),"HBV; listed as 14, dihydrochloride",just slightly less than that observed with the control; also recorded: potent inhibitors
same,Kapp,poly(dA-dT),3.8e+07 M⁻¹
same,[…] % of Control,[2]; dose 3.02 × 10^-4 Molar,-0.86 % of Control
same,[…] % of Control,[2]; dose 3.03 × 10^-5 Molar,112.05 % of Control
same,[…] % of Control,[2]; dose 3.03 × 10^-6 Molar,103.19 % of Control
same,[…] % of Control,[2]; dose 3.04 × 10^-7 Molar,100.16 % of Control
same,[…] % of Control,[2]; dose 9.54 × 10^-5 Molar,94.16 % of Control
same,[…] % of Control,[2]; dose 9.57 × 10^-4 Molar,5.40 % of Control
same,[…] % of Control,[2]; dose 9.59 × 10^-6 Molar,112.20 % of Control
same,[…] % of Control,[2]; dose 9.61 × 10^-7 Molar,100.02 % of Control
"Cl.Cl.Cn1cc(NC(=O)c2cc(NC(=O)[C@@H]3C[C@H]3C(=O)Nc3cc(C(=O)Nc4cc(C(=O)NCCC(=N)N)n(C)c4)n(C)c3)cn2C)cc1C(=O)NCCC(=N)N [Compound 23b, N,N'-Di(1-methyl-2-[1-methyl-2-carboxamide-(3-proprionamidine)-4-pyrrole]-4-pyrrolyl)transcylcopropyldicarboxamide dihydrochloride]",EC50,HIV-1,3.44 µM
same,Anti-HIV-1 Activity (National Cancer Institute Designation),HIV-1,Moderate
same,ID50 (average ± SD),[3],7.0 ± 3.6 µg/mL
same,Kapp,poly(dA-dT),5.3e+07 M⁻¹
"Cl.Cl.Cn1cc(NC(=O)c2cc(NC(=O)Nc3cc(C(=O)Nc4cc(C(=O)NCCC(=N)N)n(C)c4)n(C)c3)cn2C)cc1C(=O)NCCC(=N)N [Compound 3, N,N'-Di(1-methyl-2-[1-methyl-2-carboxamido(3-propionamidine)-4-pyrrole]-4-pyrrolyl)urea dihydrochloride]",EC50,HIV-1,11.9 µM
same,Anti-HIV-1 Activity (National Cancer Institute Designation),HIV-1,Moderate
same,NEUTRAL RED DYE UPTAKE,2.2.15 cells; 10 μg/ml,99 ± 1 % OF CONTROL
same,NEUTRAL RED DYE UPTAKE,2.2.15 cells; 30 μg/ml,99 ± 1 % OF CONTROL
same,NEUTRAL RED DYE UPTAKE,2.2.15 cells; 100 μg/ml,99 ± 2 % OF CONTROL
same,NEUTRAL RED DYE UPTAKE,2.2.15 cells; 300 μg/ml,82 ± 2 % OF CONTROL
same,Solubility in DMSO,[1],good
same,Solubility in H2O,[1]; H2O,good
same,INT[…] DNA MONO.,"HBV; 10 μM, dihydrochloride",2.8 pg/μg CELL DNA and 2.2 pg/μg CELL DNA and 2.6 pg/μg CELL DNA and 2.5 pg/μg CELL DNA
same,HBV VIRION DNA DAY 0,"HBV; 10 μM, dihydrochloride",57 pg/ml CULTURE MEDIUM and 64 pg/ml CULTURE MEDIUM and 74 pg/ml CULTURE MEDIUM and 60 pg/ml CULTURE MEDIUM
same,HBV VIRION DNA DAY 9,"HBV; 10 μM, dihydrochloride",69 pg/ml CULTURE MEDIUM and 74 pg/ml CULTURE MEDIUM and 94 pg/ml CULTURE MEDIUM and 92 pg/ml CULTURE MEDIUM
same,INT[…] DNA MONO.,"HBV; 50 μM, dihydrochloride",2.9 pg/μg CELL DNA and 2.2 pg/μg CELL DNA and 2.4 pg/μg CELL DNA
same,HBV VIRION DNA DAY 0,"HBV; 50 μM, dihydrochloride",58 pg/ml CULTURE MEDIUM and 68 pg/ml CULTURE MEDIUM and 81 pg/ml CULTURE MEDIUM
same,HBV VIRION DNA DAY 6,"HBV; 50 μM, dihydrochloride",67 pg/ml CULTURE MEDIUM and 44 pg/ml CULTURE MEDIUM and 78 pg/ml CULTURE MEDIUM and 76 pg/ml CULTURE MEDIUM
same,HBV VIRION DNA DAY 9,HBV; [5],16 pg/ml CULTURE MEDIUM and 13 pg/ml CULTURE MEDIUM and 19 pg/ml CULTURE MEDIUM and 10 pg/ml CULTURE MEDIUM
same,effect on HBV replication (in words),HBV,weak inhibitor
same,DNA Binding Constant,calf thymus DNA,5.6e+07 M⁻¹
Cc1cn([C@H]2C[C@H](N=[N+]=[N-])[C@@H](CO)O2)c(=O)[nH]c1=O [AZT],"Toxicity, TD50",SC-1 cells,> 100.00 ug/mL^-1
same,"Activity, MIC50",[4],0.0014 µg/mL
